In the NIST ThermoML archive (doi:10.1021/je700260f):
Numbers after ± are expanded uncertainties.

Conditions: 303.15 K, Liquid, Vibrating tube method

FC(C(F)(F)F)C(F)(F)F [1,1,1,2,3,3,3-heptafluoropropane]
Conditions	mass density [kg/m3]
23528 kPa	1493.1 ± 1.6
23717 kPa	1493.9 ± 1.6
23749 kPa	1494.1 ± 1.6
23780 kPa	1494.1 ± 1.6
23812 kPa	1494.2 ± 1.6
23848 kPa	1494.4 ± 1.6
23884 kPa	1494.5 ± 1.6
23911 kPa	1494.7 ± 1.6
23938 kPa	1494.6 ± 1.6
23969 kPa	1494.8 ± 1.6
24001 kPa	1494.9 ± 1.7
24032 kPa	1495.2 ± 1.7
24063 kPa	1495.2 ± 1.7
24107 kPa	1495.5 ± 1.7
24143 kPa	1495.5 ± 1.7
24178 kPa	1495.8 ± 1.7
24209 kPa	1495.8 ± 1.7
24240 kPa	1495.8 ± 1.7
24271 kPa	1496.1 ± 1.7
24303 kPa	1496.1 ± 1.7
24338 kPa	1496.2 ± 1.7
24370 kPa	1496.4 ± 1.7
24397 kPa	1496.4 ± 1.7
24429 kPa	1496.6 ± 1.7
24461 kPa	1496.8 ± 1.7
24496 kPa	1496.7 ± 1.7
24528 kPa	1497 ± 1.7
24559 kPa	1497.1 ± 1.7
24590 kPa	1497.1 ± 1.7
24626 kPa	1497.4 ± 1.7
24654 kPa	1497.4 ± 1.7
24682 kPa	1497.4 ± 1.7
24714 kPa	1497.6 ± 1.7
24750 kPa	1497.8 ± 1.7
24778 kPa	1497.8 ± 1.7
24809 kPa	1497.9 ± 1.7
24844 kPa	1498.2 ± 1.7
24868 kPa	1498.2 ± 1.7
24901 kPa	1498.4 ± 1.7
24928 kPa	1498.3 ± 1.7
24952 kPa	1498.5 ± 1.7
24987 kPa	1498.7 ± 1.7
25022 kPa	1498.7 ± 1.7
25049 kPa	1498.9 ± 1.7
25077 kPa	1498.9 ± 1.7
25110 kPa	1499.1 ± 1.7
25135 kPa	1499.1 ± 1.7
25167 kPa	1499.3 ± 1.7
25195 kPa	1499.1 ± 1.7
25223 kPa	1499.5 ± 1.7
25247 kPa	1499.5 ± 1.7
25287 kPa	1499.7 ± 1.7
25310 kPa	1499.8 ± 1.7
25346 kPa	1499.9 ± 1.7
25370 kPa	1499.9 ± 1.7
25411 kPa	1500.1 ± 1.7
25443 kPa	1500.1 ± 1.7
25467 kPa	1500.4 ± 1.7
25503 kPa	1500.4 ± 1.7
25528 kPa	1500.5 ± 1.7
25561 kPa	1500.7 ± 1.7
25602 kPa	1500.8 ± 1.7
25630 kPa	1501 ± 1.7
25658 kPa	1501.1 ± 1.7
25686 kPa	1501 ± 1.7
25715 kPa	1501.2 ± 1.7
25740 kPa	1501.3 ± 1.7
25774 kPa	1501.4 ± 1.7
25801 kPa	1501.6 ± 1.7
25837 kPa	1501.5 ± 1.7
25858 kPa	1501.5 ± 1.7
25891 kPa	1501.9 ± 1.7
25911 kPa	1501.9 ± 1.7
25944 kPa	1502 ± 1.7
25972 kPa	1502.1 ± 1.7
26000 kPa	1502.2 ± 1.7
26025 kPa	1502.4 ± 1.7
26056 kPa	1502.4 ± 1.7
26076 kPa	1502.6 ± 1.7
26109 kPa	1502.6 ± 1.7
26134 kPa	1502.8 ± 1.7
26158 kPa	1502.9 ± 1.7
26191 kPa	1502.9 ± 1.7
26216 kPa	1502.9 ± 1.7
26252 kPa	1503 ± 1.7
26284 kPa	1503.3 ± 1.7
26307 kPa	1503.3 ± 1.7
26336 kPa	1503.4 ± 1.7
26361 kPa	1503.5 ± 1.7
26394 kPa	1503.6 ± 1.7
26418 kPa	1503.8 ± 1.7
26512 kPa	1503.9 ± 1.7
26545 kPa	1504.1 ± 1.7
26714 kPa	1504.6 ± 1.7
26743 kPa	1504.8 ± 1.7
26776 kPa	1504.9 ± 1.7
26801 kPa	1505.1 ± 1.7
26834 kPa	1505.2 ± 1.7
26858 kPa	1505.2 ± 1.7
26891 kPa	1505.3 ± 1.7
26924 kPa	1505.5 ± 1.7
26948 kPa	1505.5 ± 1.7
26981 kPa	1505.7 ± 1.7
27006 kPa	1505.7 ± 1.7
27035 kPa	1505.9 ± 1.7
27060 kPa	1506 ± 1.7
27246 kPa	1506.5 ± 1.7
27275 kPa	1506.7 ± 1.7
27304 kPa	1506.8 ± 1.7
27334 kPa	1506.8 ± 1.7
27368 kPa	1507.1 ± 1.7
27464 kPa	1507.4 ± 1.7
28427 kPa	1510.7 ± 1.7
28456 kPa	1510.8 ± 1.7
28486 kPa	1510.9 ± 1.7
28516 kPa	1510.9 ± 1.7
28541 kPa	1511.1 ± 1.7
28576 kPa	1511.2 ± 1.7
28601 kPa	1511.3 ± 1.7
28636 kPa	1511.4 ± 1.7
28661 kPa	1511.3 ± 1.7
28700 kPa	1511.5 ± 1.7
28729 kPa	1511.7 ± 1.7
28768 kPa	1511.7 ± 1.7
28793 kPa	1511.8 ± 1.7
28832 kPa	1512 ± 1.7
28858 kPa	1512.2 ± 1.7
28893 kPa	1512.3 ± 1.7
28924 kPa	1512.3 ± 1.7
28967 kPa	1512.6 ± 1.7
28997 kPa	1512.6 ± 1.7
29020 kPa	1512.7 ± 1.7
29047 kPa	1512.7 ± 1.7
29074 kPa	1512.8 ± 1.7
29113 kPa	1513 ± 1.7
29139 kPa	1513 ± 1.7
29169 kPa	1513 ± 1.7
29196 kPa	1513.3 ± 1.7
29235 kPa	1513.4 ± 1.7
29267 kPa	1513.4 ± 1.7
29298 kPa	1513.6 ± 1.7
29323 kPa	1513.6 ± 1.7
29349 kPa	1513.7 ± 1.7
29389 kPa	1513.9 ± 1.7
29429 kPa	1514.1 ± 1.7
29461 kPa	1514.1 ± 1.7
29492 kPa	1514.2 ± 1.7
29527 kPa	1514.4 ± 1.7
29554 kPa	1514.5 ± 1.7
29584 kPa	1514.6 ± 1.7
29614 kPa	1514.7 ± 1.7
29645 kPa	1514.6 ± 1.7
29676 kPa	1514.8 ± 1.7
29706 kPa	1515 ± 1.7
29746 kPa	1515 ± 1.7
29773 kPa	1515.3 ± 1.7
29800 kPa	1515.3 ± 1.7
29831 kPa	1515.3 ± 1.7
29866 kPa	1515.5 ± 1.7
29892 kPa	1515.6 ± 1.7
29927 kPa	1515.6 ± 1.7
29953 kPa	1515.7 ± 1.7
29984 kPa	1515.8 ± 1.7
30015 kPa	1516 ± 1.7
30043 kPa	1516.2 ± 1.7
30079 kPa	1516.2 ± 1.7
30110 kPa	1516.3 ± 1.7
30145 kPa	1516.4 ± 1.7
30176 kPa	1516.5 ± 1.7
30211 kPa	1516.5 ± 1.7
30247 kPa	1516.7 ± 1.7
30277 kPa	1516.8 ± 1.7
30316 kPa	1516.9 ± 1.7
30341 kPa	1516.9 ± 1.7
30376 kPa	1517.1 ± 1.7
30406 kPa	1517.2 ± 1.7
30437 kPa	1517.3 ± 1.7
30464 kPa	1517.4 ± 1.7
30502 kPa	1517.5 ± 1.7
30529 kPa	1517.6 ± 1.7
30561 kPa	1517.7 ± 1.7
30597 kPa	1517.8 ± 1.7
30619 kPa	1518 ± 1.7
30655 kPa	1518.1 ± 1.7
30678 kPa	1518.1 ± 1.7
30713 kPa	1518.1 ± 1.7
30735 kPa	1518.4 ± 1.7
30769 kPa	1518.4 ± 1.7
30805 kPa	1518.6 ± 1.7
30842 kPa	1518.6 ± 1.7
30873 kPa	1518.8 ± 1.7
30910 kPa	1518.8 ± 1.7
30945 kPa	1518.9 ± 1.7
30977 kPa	1519.1 ± 1.7
31009 kPa	1519 ± 1.7
31044 kPa	1519.2 ± 1.7
31076 kPa	1519.4 ± 1.7
31117 kPa	1519.6 ± 1.7
31149 kPa	1519.7 ± 1.7
31186 kPa	1519.7 ± 1.7
31223 kPa	1519.8 ± 1.7
31256 kPa	1519.8 ± 1.7
31292 kPa	1519.9 ± 1.7
31319 kPa	1520.1 ± 1.7
31351 kPa	1520.3 ± 1.7
